# Assay results reported in patent US11377456B2, “Crystalline form of Remdesivir” (Apotex Inc., priority 2020, dated 2022).
# Columns and labels:
# [1] = PXRD study of crystalline form stability in a 27° C./60% RH stability chamber; format: physicochemical; conditions: capped and uncapped samples, at least 5 weeks
# Experimental: Remdesivir Form APO-I can be characterized by a PXRD diffractogram comprising, among other peaks, characteristic peaks, expressed in degrees 2θ (±0.2°), at 4.0°, 17.0° and 20.3°. Preferably, the PXRD diffractogram further comprises at least three peaks, expressed in degrees 2θ (±0.2°), selected from the group consisting of 10.4°, 13.0°, 14.1°, 15.3°, 17.5°, 18.3°, 22.1°, 23.9°, 25.1° and 25.9°. More preferably, the PXRD diffractogram further comprises peaks, expressed in degrees 2θ (±0.2°), at 10.4°, 13.0°, 14.1°, 15.3°, 17.5°, 18.3°, 22.1°, 23.9°, 25.1° and 25.9°.
# The PXRD diffractogram was recorded on a Bruker D8 Discover powder X-ray diffractometer (Bruker-AXS, Karlsruhe, Germany). The generator was a Micro-focus X-ray source (Incoatec IμS Cu anode, λ=1.54060 Å) with a voltage of 50 kV and current of 1.00 mA. X-rays were focused with a micro mask 0.1 mm plug-in microslit. One frame was collected using a still scan with a PILATUS3 R 100K-A detector at the distance of 154.72 mm from the sample. Raw data was evaluated using the program EVA (Bruker-AXS, Karlsruhe, Germany).
# [2] = Comparative intrinsic dissolution testing (Wood's apparatus); format: physicochemical; conditions: 900 mL distilled water, 37° C., 50 rpm, sample compressed at 1.5 metric tons for 1 minute
# Experimental: Intrinsic dissolution rate (IDR) measurements were performed using a Wood's apparatus. Samples were prepared by compressing an amount (267 mg Form II; 258 mg APO-I) of sample at 1.5 metric tons for 1 minute. A dissolution medium consisting of 900 mL distilled water maintained at 37° C., and rotation speed of 50 rpm, was used for each experiment.
Intrinsic Dissolution Rate [2],Structure (SMILES),Change in crystalline form by PXRD (polymorphic stability) [1]
0.013 mg min^−1 cm^−2,CCC(CC)COC(=O)[C@H](C)N[P@](=O)(OC[C@H]1O[C@@](C#N)(c2ccc3c(N)ncnn23)[C@H](O)[C@@H]1O)Oc1ccccc1 [Remdesivir Form APO-I],no change in the crystalline form occurred
0.0083 mg min^−1 cm^−2,"CCC(CC)COC(=O)[C@H](C)N[P@](=O)(OC[C@H]1O[C@@](C#N)(c2ccc3c(N)ncnn23)[C@H](O)[C@@H]1O)Oc1ccccc1 [Remdesivir Form II, reference compound]",–
